Measurements reported in patent US20240059703A1 (AMGEN INC., priority 2021, published 2024).

target: KRAS G12C (Homo sapiens (Human), UniProt P01116, C118A/G12C); assay: 2 h coupled exchange assay; assay type: biochemical; settings: Avg 2 h Coupled exchange IC50, 2 h compound pre-incubation
Protocol: The term “2 h coupled exchange assay” or “20 h coupled exchange assay” as used herein refers to the assay described in the Section entitled “BIOLOGICAL EVALUATION.”

KRAS G12C, sequence (P01116 other isoform, or with tags, fused parts or gaps G12C/C118A): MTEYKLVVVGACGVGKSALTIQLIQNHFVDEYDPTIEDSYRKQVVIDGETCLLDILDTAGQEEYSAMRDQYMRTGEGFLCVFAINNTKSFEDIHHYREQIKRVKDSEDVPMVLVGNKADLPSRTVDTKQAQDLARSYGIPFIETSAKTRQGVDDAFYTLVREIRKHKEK

IC50 [nM] | Structure (SMILES)
260 | C=CC(=O)N1CC2(CCN(c3nc4cc(-c5ccnn5C)ccc4c(-c4c(O)cccc4F)c3C)C2)C1 [Example 16-10, 1-(6-(4-(2-fluoro-6-hydroxyphenyl)-3-methyl-7-(1-methyl-1H-pyrazol-5-yl)-2-quinolinyl)-2,6-diazaspiro[3,4]octan-2-yl)-2-propen-1-one]
293 | C=CC(=O)N1CC2(CCN(c3nc4cc(-c5ccnn5C)ccc4c(-c4ccccc4Cl)c3C#N)C2C)C1 (centres unmarked) [Example 17-1, 2-(2-acryloyl-5-methyl-2,6-diazaspiro[3.4]octan-6-yl)-4-(2-chlorophenyl)-7-(1-methyl-1H-pyrazol-5-yl)quinoline-3-carbonitrile]
1770 | C=CC(=O)N1CC2(CCN(c3nc4c(c(-c5ccc(F)c6sc(N)nc56)c3C)COC(C)(C)C4)C2)C1 (single isomer, unassigned) [Example 14-39, (M)-1-(6-(4-(2-amino-7-fluoro-1,3-benzothiazol-4-yl)-3,7,7-trimethyl-7,8-dihydro-5H-pyrano[4,3-b]pyridin-2-yl)-2,6-diazaspiro[3.4]octan-2-yl)-2-propen-1-one]
708 | C=CC(=O)N1CC2(CCN(c3nc4cc(-c5ccnn5C)ccc4c(-c4ccc(F)cc4F)c3C)C2)C1 [Example 16-6, 1-(6-(4-(2,4-difluorophenyl)-3-methyl-7-(1-methyl-1H-pyrazol-5-yl)-2-quinolinyl)-2,6-diazaspiro[3.4]octan-2-yl)-2-propen-1-one]
648 | C=CC(=O)N1CC2(CCN(c3nc4cc(-c5cc(C)nn5C)ccc4c(-c4ccccc4Cl)c3C)C2)C1 [Example 16-2, 1-(6-(4-(2-chlorophenyl)-7-(1,3-dimethyl-1H-pyrazol-5-yl)-3-methyl-2-quinolinyl)-2,6-diazaspiro[3.4]octan-2-yl)-2-propen-1-one]
648 | C=CC(=O)N1CC2(CCN(c3nc4c(c(-c5c(C)ccc6cnn(C)c56)c3C(F)F)COC(C)(C)C4)C2)C1 [Example 29-1, 1-(6-(3-(difluoromethyl)-4-(1,6-dimethyl-1H-indazol-7-yl)-7,7-dimethyl-7,8-dihydro-5H-pyrano[4,3-b]pyridin-2-yl)-2,6-diazaspiro[3.4]octan-2-yl)-2-propen-1-one]
390 | C=CC(=O)N1CC2(CCN(c3nc4cc(-c5ccnn5C)ccc4c(-c4c(O)cccc4Cl)c3C)C2)C1 [Example 16-5, 1-(6-(4-(2-chloro-6-hydroxyphenyl)-3-methyl-7-(1-methyl-1H-pyrazol-5-yl)-2-quinolinyl)-2,6-diazaspiro[3.4]octan-2-yl)-2-propen-1-one]
209 | C=CC(=O)N1CC2(CCN(c3nc4c(c(-c5c(C)c(Cl)cc6cnn(C)c56)c3F)COC(C)(C)C4)C2)C1 [Example 14-55, 1-(6-(4-(5-chloro-1,6-dimethyl-1H-indazol-7-yl)-3-fluoro-7,7-dimethyl-7,8-dihydro-5H-pyrano[4,3-b]pyridin-2-yl)-2,6-diazaspiro[3.4]octan-2-yl)-2-propen-1-one]
655 | C=CC(=O)N1CC2(CCN(c3nc4cc(-c5scnc5C)cnc4c(-c4ccccc4F)c3Cl)C2)C1 [Example 28-1, 1-(6-(3-chloro-4-(2-fluorophenyl)-7-(4-methylthiazol-5-yl)-1,5-naphthyridin-2-yl)-2,6-diazaspiro[3.4]octan-2-yl)prop-2-en-1-one]

same assay, conditions: Avg 2 h Coupled exchange IC50, 2 h compound pre-incubation, SOS-mediated nucleotide exchange

IC50 [nM] | Structure (SMILES)
43600 | C=CC(=O)N1CC2(CCN(c3nc4ccccc4c(-c4c(C)ccc5[nH]ncc45)c3C)C2)C1 (single isomer, unassigned) [Example 2-56, (M)-1-(6-(3-methyl-4-(5-methyl-1H-indazol-4-yl)-2-quinolinyl)-2,6-diazaspiro[3.4]octan-2-yl)-2-propen-1-one]
641 | C=CC(=O)N1CC2(CCN(c3nc4c(c(-c5cccc6c(O)cccc56)c3C)COC(C)(C)C4)C2)C1 [Example 2-82, 1-(6-(4-(5-hydroxy-1-naphthalenyl)-3,7,7-trimethyl-7,8-dihydro-5H-pyrano[4,3-b]pyridin-2-yl)-2,6-diazaspiro[3,4]octan-2-yl)-2-propen-1-one]
62500 | C=CC(=O)N1CC2(CCN(c3nc4c(c(-c5c(C)ccc6cnn(C)c56)c3C#N)CC[C@H]3C[C@@H]43)C2)C1 (single isomer, unassigned) [Example 13-135, (6a,7a)-4-(1,6-dimethyl-1H-indazol-7-yl)-2-(2-(2-propenoyl)-2,6-diazaspiro[3.4]octan-6-yl)-6,6a,7,7a-tetrahydro-5H-cyclopropa[h]quinoline-3-carbonitrile]
623 | C=CC(=O)N1CC2(CCN(c3nc4c(c(-c5ccc(F)c6cc[nH]c56)c3C#N)COC(C)(C)C4)C2)C1 [Example 12-3, 4-(4-fluoro-1H-indol-7-yl)-7,7-dimethyl-2-(2-(2-propenoyl)-2,6-diazaspiro[3.4]octan-6-yl)-7,8-dihydro-5H-pyrano[4,3-b]pyridine-3-carbonitrile]
685 | C=CC(=O)N1CC2(CCN(c3nc4c(c(-c5c(C)ccc6[nH]ncc56)c3COC)CCC(C)(C)C4)C2)C1 [Example 13-46, 1-(6-(3-(methoxymethyl)-7,7-dimethyl-4-(5-methyl-1H-indazol-4-yl)-5,6,7,8-tetrahydro-2-quinolinyl)-2,6-diazaspiro[3.4]octan-2-yl)-2-propen-1-one]
141 | C=CC(=O)N1CC2(CCN(c3nc4c(c(-c5c(C)c(C)cc6cnn(C)c56)c3C)CCN(C(C)C)C4)C2)C1 [Example 12-25, 1-(6-(3-methyl-7-(2-propanyl)-4-(1,5,6-trimethyl-1H-indazol-7-yl)-5,6,7,8-tetrahydro-1,7-naphthyridin-2-yl)-2,6-diazaspiro[3.4]octan-2-yl)-2-propen-1-one]
132 | C=CC(=O)N1CC2(CCN(c3nc4c(c(-c5cccc6cc(N)ncc56)c3C#N)COC(C)(C)C4)C2)C1 [Example 12-17, 4-(3-amino-8-isoquinolinyl)-7,7-dimethyl-2-(2-(2-propenoyl)-2,6-diazaspiro[3.4]octan-6-yl)-7,8-dihydro-5H-pyrano[4,3-b]pyridine-3-carbonitrile]
14700 | C=CC(=O)N1CC2(CCN(c3nc4c(c(-c5c(C)ccc6cnn(C)c56)c3C#N)C[C@H]3C[C@@H]4C3(C)C)C2)C1 (single isomer, unassigned) [Example 13-105]
856 | C=CC(=O)N1CC2(CCN(c3nc4c(c(-c5cnccc5C)c3C#N)C[C@H]3C[C@@H]4C3(C)C)C2)C1 (single isomer, unassigned) [Example 13-123]
610 | Cc1ccc2[nH]ncc2c1-c1c(C#N)c(N2CCC3(CN(C(=O)/C=C/CN(C)C)C3)C2)cc2c1COCC2 [Example 2-94, 6-(2-((2E)-4-(dimethylamino)-2-butenoyl)-2,6-diazaspiro[3.4]octan-6-yl)-8-(5-methyl-1H-indazol-4-yl)-3,4-dihydro-1H-2-benzopyran-7-carbonitrile]
3530 | C=CC(=O)N1CC2(CCN(c3cn4ccnc4c(-c4cc(O)ccc4C)c3C#N)C2)C1 [Example 1-29, 8-(5-hydroxy-2-methylphenyl)-6-(2-(2-propenoyl)-2,6-diazaspiro[3.4]octan-6-yl)imidazo[1,2-a]pyridine-7-carbonitrile]
818 | C=CC(=O)N1CC2(CCN(c3nc4c(c(-c5cccc6cc(N)ccc56)c3C#N)COC(C)(C)C4)C2)C1 [Example 12-4, 4-(6-amino-1-naphthalenyl)-7,7-dimethyl-2-(2-(2-propenoyl)-2,6-diazaspiro[3.4]octan-6-yl)-7,8-dihydro-5H-pyrano[4,3-b]pyridine-3-carbonitrile]
324 | Cc1ccc2[nH]ncc2c1-c1c(C#N)c(N2CCC3(CN(C(=O)/C=C/CO)C3)C2)nc2c1CCC(C)(C)C2 [Example 13-9, 2-(2-((2E)-4-hydroxy-2-butenoyl)-2,6-diazaspiro[3.4]octan-6-yl)-7,7-dimethyl-4-(5-methyl-1H-indazol-4-yl)-5,6,7,8-tetrahydro-3-quinolinecarbonitrile]
129 | C=CC(=O)N1CC2(CCN(c3nc4c(c(-c5c(C)ccc6[nH]ncc56)c3C#N)[C@H]3CC[C@@H]4C3)C2)C1 (single isomer, unassigned) [Example 14-5]
34100 | C=CC(=O)N1CC2(CCN(c3nc4c(c(-c5c(C)cccc5O)c3C#N)C[C@H]3C[C@@H]4C3)C2)C1 (single isomer, unassigned) [Example 13-40]
130 | CN(C)C/C=C/C(=O)N1CC2(CCN(c3nc4c(c(-c5cc(O)cc6ccccc56)c3C#N)CC[C@@H]3C[C@H]43)C2)C1 (atropisomer, axis not shown; (P)) [Example 13-87, (P)-(6aR,7aS)-2-(2-((2E)-4-(dimethylamino)-2-butenoyl)-2,6-diazaspiro[3.4]octan-6-yl)-4-(3-hydroxy-1-naphthalenyl)-6,6a,7,7a-tetrahydro-5H-cyclopropa[h]quinoline-3-carbonitrile]
639 | C=CC(=O)N1CC2(CCN(c3nc4c(c(-c5c(C)cccc5O)c3C#N)C[C@H]3C[C@@H]4C3)C2)C1 (single isomer, unassigned) [Example 13-39]
39300 | C=CC(=O)N1CC2(CCN(c3nc4c(c(-c5c(C)ccc6cnn(C)c56)c3C#N)CC[C@@H]3C[C@H]43)C2)C1 (single isomer, unassigned) [Example 13-134, (6a,7a)-4-(1,6-dimethyl-1H-indazol-7-yl)-2-(2-(2-propenoyl)-2,6-diazaspiro[3.4]octan-6-yl)-6,6a,7,7a-tetrahydro-5H-cyclopropa[h]quinoline-3-carbonitrile]
145 | C=CC(=O)N1CC2(CCN(c3nc4c(c(-c5c(C)ccc6cnn(C)c56)c3C#N)CCC3CC43)C2CO)C1 (centres unmarked) [Example 13-63]
5240 | C=CC(=O)N1CC2(CCN(c3nc4c(c(-c5ccc(F)c6sc(N)nc56)c3C)CCC(C)(C)C4)C2)C1 (single isomer, unassigned) [Example 2-18]
